# In patent US11382929B2, “Compositions and methods to treat disease” (REGENTS OF THE UNIVERSITY OF MINNESOTA, priority 2019, dated 2022):
# “Also recorded” adds a separate entry of the source.
# Legend:
# AsPC-1 cells = test: PAHM+Dox cytotoxicity assay (MTT); format: cell-based, human; conditions: AsPC-1, PAHM and Dox used in combination
# Protocol: AsPC-1 or EMT6 cells were plated at 5000 cells/well (in 100 μL phenol red free medium) in 96-well plates. After culturing overnight (˜20 h), the medium was removed, and 100 μL medium containing various concentrations of PAHM and/or Dox was added to the cells. AsPC-1 cells were exposed to 1-100 μg/mL PAHM, 1-100 μg/mL Dox, or combinations of PAHM and Dox at a 1:1 ratio. EMT6 cells were exposed to 1-100 μg/mL PAHM, 0.02-2 μg/mL Dox, or combinations of PAHM and Dox at a 50:1 ratio. After 24 h exposure, the PAHM and Dox solutions were removed and 100 μL phenol red free medium was added to the cells. Cell viability was measured using an MTT assay. To each well, 10 μL MTT solution (12 mM in PBS) was added. After 4 h, 85 μL was removed from each well and formazan was solubilized in 100 μL dimethyl sulfoxide (DMSO). Absorbance was measured at 540 nm using a plate reader (BioTek™ Cytation™ 3 Cell Imaging Multi-Mode Reader controlled by Gen5™ All-In-One Microplate Reader Software). Data was analyzed in Microsoft Excel and Combination Indices and Dose Reduction Indices were calculated using CompuSyn (ComboSyn, Inc.)
# T98G = test: MTT cytotoxicity in 2D monolayer cell culture; format: cell-based; conditions: Homo sapiens, 24 h treatment
# Protocol: (§1) Cytotoxicity in 2D Monolayer Cell Culture A mouse breast cancer cell line EMT-6 (ATCC, Manassas, Va.), two human breast cancer cell lines MDA-MB-231(ATCC) and MCF-7(ATCC), and one human glioma cancer cell line T98G(ATCC) were used in standard MTT assays (T. Mosmann, J Immunol Methods 65(1-2) (1983) 55-63) to test the cytotoxicity of PAHM polymers with different molecular weight and concentration after 24 and 48 h of treatment. D ox-HCl was also tested for comparison. All of the four cancer cell lines were incubated in corresponding cell culture media, EMT-6 media (DMEM high glucose, 10% FBS, 100 U/mL penicillin/streptomycin), T98G and MDA-MB-231 media (DMEM low glucose, 10% FBS, 100 U/mL penicillin/streptomycin), MCF-7 media (DMEM low glucose, 10% FBS, insulin, 100 U/mL penicillin/streptomycin), at 37° C., and a humidified atmosphere containing 5% CO2.
# (§2) The MTT assay of PAHM polymers and Dox-HCl on EMT-6 cells exemplified the general experimental procedures. EMT-6 cells were seeded into 96-well plates at 5000 cells/well and cultured for 20 h in EMT-6 media at 5% CO2 and 37° C. Afterwards polymers of various molecular weight and concentrations were added to the cells and cultured for 24 h or 48 h. MTT in PBS (5 mg/mL, 20 μL) was then added to each well, reaching a final concentration of 0.5 mg/mL. After 4 h, unreacted MTT was removed by aspiration. The formazan crystals were dissolved in 150 μL of DMSO, and the absorbance was measured at 570 nm using a Bio-Tek Synergy HT plate reader. Cell viability was calculated by [absorbance of cells exposed to polymers]/[absorbance of cells cultured without polymers] in percentage. Cell images were captured before MTT was added using an Olympus IX70 […] microscope under polarized light.
# EMT-6 = test: MTT cytotoxicity in 2D monolayer cell culture; format: cell-based; conditions: Mus musculus, EMT6
# Protocol: as §1, §2
# EMT-6 tumors = test: In vivo EMT-6 tumor model, anti-tumor effect; set-up: species or system Balb/C mice; conditions: 8 mice per group, charge ratios 1, 4, 16 (low, med, high heparin dose) or equivalent heparin alone
# erythrocytes (RBC) = test: Hemolysis; format: cell-based, mouse; conditions: complex of the anionic polymer with PAHM, data not shown
# [1] = Particle size of complexes by dynamic light scattering; format: physicochemical; conditions: complex of the anionic polymer with PAHM
# Protocol: Heparin (sodium salt) was mixed with PAHM in 20 mM HEPES buffer (pH 7.4) and incubated for 30 minutes at room temperature. The charge ratio of heparin and PAHM was adjusted based on the assumption that one repeating unit of PAHM (Mw 325.88) bears 1 mole of positive charge (approximately the same number of primary amino groups) and that one repeating unit of heparin (Mw 1471) carries 8 moles of negative charges (approximately the number of carboxylate and sulfate groups combined). The final PAHM concentration was kept constant as 0.1 mg/mL. To determine the average particle size of the nano-complexes, the heparin/PAHM mixtures were diluted 20 times to a final volume of 2 mL in HEPES buffer. The average hydrodynamic diameter (or particle size) in HEPES buffer (20 mM) at 25° C. were determined using a ZetaPlus Particle Analyzer (Brookhaven Instruments Corporation, Holtsville, N.Y.; 27 mW laser; 658 nm incident beam, 90° scattering angle). Nano-complexes with heparin/PAHM charge ratios ranging from 1 to 32 were prepared as described above and measured by DLS.
molecule,measurement,setting,value
"COc1cccc2c1C(=O)c1c(O)c3c(c(O)c1C2=O)C[C@@](O)(C(=O)CO)C[C@@H]3O[C@H]1C[C@H](N)[C@H](O)[C@H](C)O1 [Dox, doxorubicin]",Dose Reduction Index (DRI),AsPC-1 cells,much higher; also recorded: All but one DRI values are above 1
same,IC50,T98G,> 40 µg/mL
same,IC50,"EMT-6; EMT-6, 24 h treatment",10 to 15 µg/mL
same,IC50,"EMT-6; EMT-6, 48 h",5 µg/mL
heparin,tumor growth (tumor volume and weight),EMT-6 tumors,modest but insignificant effect on tumor growth
hyaluronic acid [HA],hemolytic activity of PAHM in complexed form,erythrocytes (RBC),"reduced, sometimes abolished"
same,particles formed with PAHM (size),[1],nano to micro scale
